Columns and labels:
[1] = compound: C(C(=O)C(=O)O)Br [Bromopyruvate]; assay: relative viability (nuclei count vs DMSO), 5 days (fraction); higher = more cells survive
How it was run: (§1)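 Five library-drug doses spaced by √10 were pinned onto vehicle-anchored 1536-well plates of lung cancer cell lines that had been kept overnight at 37 °C. Cells went 5 days without medium change, then were fixed, permeabilised and Hoechst-stained together, imaged at 4× and counted by MetaXpress. Viability is the ratio of treated-well to vehicle-well nuclei, taken as a median over plates. Plates required control CV below 25% and at least one doubling.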

[2] = compound: CC(O)(CS(=O)(=O)c1ccc(F)cc1)C(=O)Nc1ccc(C#N)c(C(F)(F)F)c1 [Bicalutamide]; assay: as above
How it was run: as §1

| Cell Line | relative viability ([1]; 1 µM) | relative viability ([1]; 3.162 µM) | relative viability ([1]; 10 µM) | relative viability ([1]; 31.62 µM) | relative viability ([1]; 100 µM) | relative viability ([2]; 0.08 µM) | relative viability ([2]; 0.253 µM) | relative viability ([2]; 0.8 µM) | relative viability ([2]; 2.53 µM) |
| --- | --- | --- | --- | --- | --- | --- | --- | --- | --- |
| NCI-H596 | 1.09 | 0.982 | 1.03 | 0.862 | 1.12 | 0.956 | 0.953 | 1.07 | 1.12 |
| NCI-H647 | 1 | 1.08 | 1.17 | 1.03 | 0.951 | 0.987 | 0.886 | 1.37 | 0.893 |
| NCI-H650 | 0.944 | 1 | 0.98 | 0.887 | 0.895 | 1.08 | 1.03 | 1.11 | 0.837 |
| NCI-H661 | 1.02 | 0.992 | 1.02 | 1.01 | 0.972 | 0.987 | 0.998 | 1.04 | 1.01 |
| NCI-H727 | 0.959 | 1.19 | 1.09 | 1.08 | 1.03 | 1.02 | 0.807 | 1.13 | 1.05 |
| NCI-H838 | 0.994 | 0.972 | 1.05 | 0.995 | 0.894 | 0.95 | 0.908 | 1.05 | 0.76 |
| NCI-H1299 | 1.01 | 1 | 1.04 | 0.968 | 0.983 | 1.01 | 1.04 | 1.05 | 1 |
| NCI-H1355 | 1.01 | 1.03 | 1.08 | 0.959 | 0.953 | 1.03 | 0.918 | 1.09 | 0.946 |
| NCI-H1395 | 1.07 | 0.896 | 0.955 | 0.787 | 1.1 | 1.05 | 0.9 | 1.03 | 0.82 |
| NCI-H1437 | 1.05 | 0.961 | 1.04 | 0.972 | 1 | 0.997 | 0.966 | 1.07 | 0.984 |
| NCI-H1563 | 0.952 | 0.97 | 0.973 | 0.926 | 0.987 | 0.965 | 0.978 | 1.01 | 0.852 |
| NCI-H1623 | 1.07 | 0.944 | 1.25 | 0.973 | 0.948 | 0.628 | 0.89 | 0.969 | 0.904 |
| NCI-H1648 | 0.878 | 0.916 | 0.991 | 0.769 | 0.773 | – | 0.662 | 0.93 | 1.2 |
| NCI-H1650 | 0.998 | 0.835 | 0.959 | 0.938 | 0.865 | 0.967 | 0.935 | 1.1 | 0.842 |
| NCI-H1651 | 1.01 | 0.991 | 1.07 | 0.958 | 0.924 | 0.995 | 0.93 | 1.16 | 0.972 |
| NCI-H1666 | 0.971 | 0.98 | 1.04 | 0.937 | 0.965 | 1.04 | 0.854 | 0.96 | 1.01 |
| NCI-H1703 | 0.914 | 0.981 | 0.955 | 0.94 | 0.778 | 0.941 | 1.01 | 0.983 | 0.738 |
| NCI-H1734 | 0.971 | 1.02 | 1.15 | 1 | 0.979 | 0.991 | 0.886 | 1.14 | 0.926 |
| NCI-H1755 | 0.977 | 0.964 | 1.06 | 1.01 | 1.02 | 0.988 | 1.01 | 1.05 | 0.876 |

| Cell Line | relative viability ([1]; 1 µM) | relative viability ([1]; 3.162 µM) | relative viability ([1]; 10 µM) | relative viability ([1]; 31.62 µM) | relative viability ([1]; 100 µM) | relative viability ([2]; 0.08 µM) | relative viability ([2]; 0.253 µM) | relative viability ([2]; 0.8 µM) | relative viability ([2]; 2.53 µM) |
| --- | --- | --- | --- | --- | --- | --- | --- | --- | --- |
| NCI-H1792 | 1.14 | 1.21 | 0.805 | 0.811 | 0.928 | 0.987 | 0.779 | 1.19 | 0.962 |
| NCI-H1793 | 1.03 | 1.09 | 1.12 | 0.959 | 1.08 | 0.823 | 0.736 | 1.02 | 0.809 |
| NCI-H1915 | 1.02 | 0.984 | 1 | 1.01 | 0.997 | 1.01 | 0.922 | 1.14 | 0.964 |
| NCI-H1944 | 1.02 | 0.995 | 0.967 | 0.904 | 1 | 0.993 | 0.873 | 1.06 | 0.978 |
| NCI-H1975 | 1.02 | 0.962 | 1 | 0.939 | 0.906 | 0.935 | 0.942 | 0.998 | 0.775 |
| NCI-H1993 | 0.833 | 1.01 | 1.1 | 0.945 | 0.951 | 0.896 | 0.811 | 0.987 | 0.996 |
| NCI-H2009 | 0.975 | 1.04 | 0.96 | 0.925 | 0.734 | 1.11 | 1.05 | 1.04 | 0.927 |
| NCI-H2023 | 0.893 | 0.962 | 1.15 | 0.958 | 0.959 | 1.01 | 0.903 | 1.17 | 0.907 |
| NCI-H2085 | 1 | 1.04 | 1.03 | 1.07 | 1.02 | 1.01 | 0.955 | 1.01 | 0.94 |
| NCI-H2087 | 0.947 | 1.07 | 1.09 | 1.04 | 0.974 | 1.09 | 1.06 | 1.25 | 1.07 |
| NCI-H2126 | 1.03 | 0.995 | 1.05 | 0.958 | 1.03 | 0.967 | 0.949 | 1.01 | 0.95 |
| NCI-H2170 | 0.938 | 0.947 | 0.95 | 0.969 | 1.01 | 0.916 | 0.931 | 1.1 | 0.987 |
| NCI-H2228 | 1.07 | 1.04 | 1.27 | 0.851 | 1.02 | 0.798 | 0.967 | 1.56 | 1.09 |
| NCI-H2342 | 0.975 | 0.912 | 1.02 | 0.949 | 0.903 | 1.06 | 0.978 | 1.07 | 1.03 |
| NCI-H2347 | 1.06 | 0.956 | 1.01 | 0.837 | 1.03 | 1.1 | 0.913 | 1.19 | 1.03 |
| NCI-H2405 | 1.06 | 0.968 | 0.984 | 0.873 | 1.05 | 1.07 | 0.968 | 1.18 | 0.926 |
| NCI-H3122 | 0.992 | 1.01 | 0.999 | 0.972 | 1.01 | 1.03 | 0.977 | 1.01 | 1.03 |
| PC-3 [JPC-3] | 1.08 | 1.04 | 0.986 | 1.01 | 1.04 | 1.07 | 1.03 | 1.16 | 1.03 |
| PC-14 | 1.05 | 1.07 | 1.09 | 0.997 | 0.943 | 1.02 | 1.01 | 1.15 | 0.976 |

— the supplement of paper PMC10307832
